Tests used:
[1] = refractive index (Na D-line) (dimensionless); xn = mol fraction of the nth substance listed; details: 99 kPa, Liquid, Abbe refractometer
[2] = relative permittivity at various frequencies (dimensionless); xn = mol fraction of the nth substance listed; details: 99 kPa, Liquid, Frequency=2 MHz, Parallel plate capacitor

CCCCCl [1-chlorobutane] + CCCCCCC
Details | refractive index, 283.15 K | refractive index, 298.15 K | refractive index, 313.15 K | relative permittivity, 283.15 K | relative permittivity, 298.15 K | relative permittivity, 313.15 K
[1], x2 = 0 | 1.4075 | 1.3995 | 1.39131 | – | – | –
[1], x2 = 0.0503 | 1.40636 | 1.39837 | 1.39019 | – | – | –
[1], x2 = 0.1023 | 1.40522 | 1.39724 | 1.38907 | – | – | –
[1], x2 = 0.201 | 1.40318 | 1.39522 | 1.38708 | – | – | –
[1], x2 = 0.3012 | 1.40132 | 1.39338 | 1.38527 | – | – | –
[1], x2 = 0.4003 | 1.39966 | 1.39175 | 1.38367 | – | – | –
[1], x2 = 0.4985 | 1.3982 | 1.39033 | 1.38227 | – | – | –
[1], x2 = 0.5963 | 1.39694 | 1.38909 | 1.38108 | – | – | –
[1], x2 = 0.7037 | 1.39573 | 1.38793 | 1.37996 | – | – | –
[1], x2 = 0.82 | 1.39458 | 1.38682 | 1.3789 | – | – | –
[1], x2 = 0.9094 | 1.39373 | 1.386 | 1.37811 | – | – | –
[1], x2 = 0.949 | 1.39337 | 1.38565 | 1.37778 | – | – | –
[2], x2 = 0 | – | – | – | 7.552 | 7.157 | 6.757
[2], x2 = 0.0484 | – | – | – | 7.201 | 6.84 | 6.47
[2], x2 = 0.101 | – | – | – | 6.808 | 6.475 | 6.132
[2], x2 = 0.1965 | – | – | – | 6.051 | 5.77 | 5.492
[2], x2 = 0.2708 | – | – | – | 5.486 | 5.243 | 5.005
[2], x2 = 0.4005 | – | – | – | 4.601 | 4.417 | 4.237
[2], x2 = 0.5038 | – | – | – | 3.999 | 3.855 | 3.715
[2], x2 = 0.5995 | – | – | – | 3.52 | 3.404 | 3.299
[2], x2 = 0.6978 | – | – | – | 3.089 | 3.001 | 2.921
[2], x2 = 0.805 | – | – | – | 2.665 | 2.608 | 2.545
[2], x2 = 0.897 | – | – | – | 2.327 | 2.287 | 2.247
[2], x2 = 0.9475 | – | – | – | 2.138 | 2.112 | 2.079

From the NIST ThermoML archive (doi:10.1016/j.jct.2015.03.001)
